# Read-outs that look alike come from different tables or passages of the source.
# What was measured:
# [1] = test system: CPAE (Calf Pulmonary Artery Endothelial) cells; assay: Inhibiting activity on angiogenesis (in vitro), CPAE cells, SRB method; format: cell-based; conditions: Bos taurus, Endothelial cell, 96 h, read-out: IC50, CPAE
# Method: (§1) Examination of the Inhibiting Activity on Angiogenesis (In Vitro)
# (§2) The compound sample dissolved in DMSO was diluted to ten times by using MEM culture medium (in case of CPAE cells) without adding FBS (Fetal Bovine Serum) and RPMI 1640 culture (in case of EL-4 and P388D1 cells), and 20 of the solution was poured to each well of 96 well plate in triplicate for every concentration gradient. Then, each cell suspension was prepared and poured to examine the inhibiting activity on angiogenesis.
# In case of CPAE (Calf Pulmonary Artery Endothelial) cells (used after 2-3 subcultures), a cell suspension having 7×10^3 cells/ml was prepared with MEM (+10% FBS+50 μg/ml ECGS) medium, and after pouring the suspension (180 μl) to each well of 96 well plate, they were cultured in a CO2 incubator (5% CO2, humidified) for 4 days.
# [2] = test system: EL-4 (Lymphoma, murine) cells; assay: Inhibiting activity on angiogenesis (in vitro), EL-4 cells, MTT method; format: cell-based; conditions: Mus musculus, EL4, 72 h, read-out: IC50, EL-4
# Method: as §1, §2
# In case of EL-4 (Lymphoma, murine) and P388D1 (leukemia, mouse) cells, a cell suspension having 1×10^4 cells/ml was prepared with RPMI1640 (+10% FBS) culture medium, and after pouring the suspension (180 μl) to each well of 96 well plate, they were cultured in a CO2 incubator (5% CO2, humidified) for 3 days.
# [3] = EL-4 cells, 3 days culture, MTT method
# [4] = CPAE cells, 4 days culture, SRB method
"IC50 [2, 3] [ng/mL]",Structure (SMILES),IC50 [1] [ng/mL],"IC50 [1, 4] [ng/mL]",IC50 [2] [ng/mL]
0.82,"COc1ccc(CCC(=O)O[C@@H]2CC[C@]3(CO3)[C@@H]([C@@]3(C)O[C@@H]3CC=C(C)C)C2)cc1 [Example 10, 5-Demethoxy-6-O-[3-(4-methoxyphenyl)propionyl] fumagillol]",–,0.46,–
0.46,"CC(C)=CC[C@H]1O[C@]1(C)[C@H]1CC(=O)CC[C@]1(O)CCl [Example 4, 3-Chloromethyl-5-demethoxy-3-hydroxy-6-oxo-6-deoxyfumagillol]",–,0.57,–
–,"CC(C)=CC[C@H]1O[C@]1(C)[C@H]1C[C@H](OC(=O)NC(=O)CCl)CC[C@]12CO2 [Example 5, 5-Demethoxy-6-O-chloroacetylcarbamoylfumagillol]",0.28,–,0.52
–,"CO[C@@H]1[C@H](OC(=O)/C=C/C=C/C=C/C=C/C(=O)O)CC[C@]2(CO2)[C@H]1[C@@]1(C)O[C@@H]1CC=C(C)C [Fumagillin, reference compound]",3.2,–,1.6
0.032,"CC(C)=CC[C@H]1O[C@]1(C)[C@H]1CC(=O)CC[C@]1(O)C[S+](C)C [Example 20, 2-(1,2-Epoxy-1,5-dimethyl-4-hexenyl)-1-dimethylsulfoniomethyl-4-oxo-1-cyclohexanol iodide]",–,0.012,–
21,"CC(C)=CC[C@H]1O[C@]1(C)[C@H]1C[C@H](OC(=O)/C=C/C=C/C=C/C=C/C(=O)O)CC[C@]12CO2 [5-Demethoxy fumagillin, 5-demethoxyfumagillin, reference compound]",–,28,–
0.066,"COc1cc(/C=C/C(=O)O[C@@H]2CC[C@]3(CO3)[C@@H]([C@@]3(C)O[C@@H]3CC=C(C)C)C2)cc(OC)c1OC [Example 7, 5-Demethoxy-6-O-(3,4,5-trimethoxy)cinnamoyl fumagillol]",–,0.042,–
0.26,"CC(C)=CC[C@H]1O[C@]1(C)[C@H]1C[C@H](OC(=O)/C=C/c2ccc(Cl)cc2)CC[C@]12CO2 [Example 8, 5-Demethoxy-6-O-(4-chlorocinnamoyl)fumagillol]",–,0.32,–
0.43,"CC(C)=CC[C@H]1O[C@]1(C)[C@H]1C[C@H](OC(=O)NC(=O)CCl)CC[C@]1(O)CCl [Example 9, 4-O-chloroacetylcarbamoyl-l-chloromethyl-l-cyclohexanol]",–,0.36,–
0.41,"CC(C)=CC[C@H]1O[C@]1(C)[C@H]1CC(NC(=O)/C=C/c2ccc(N(C)C)cc2)CC[C@]12CO2 (stereo partly shown) [Example 14, 6-(4-Dimethylaminocinnamoyl)amino-5-demethoxy-6-deoxyfumagillol]",–,0.19,–

Structure (SMILES),"IC50 [2, 3] [ng/mL]",IC50 [1] [ng/mL],"IC50 [1, 4] [ng/mL]",IC50 [2] [ng/mL]
"CC(C)=CC[C@H]1O[C@]1(C)[C@H]1C[C@H](OC(=O)OCc2ccccc2)CC[C@]12CO2 [Example 11, O-benzyloxycarbonyl-5-demethoxyfumagillol]",0.041,0.012,–,–

# — US6040337A, “5-demethoxyfumagillol derivatives and processes for preparing the same” (priority 1998, dated 2000)
